Results published in US20090280483A1, “Methods for Screening Interleukin-6 (IL-6) Signal Transduction Inhibitors” (priority 2005, published 2009).

Legend:
KT-3 cells = assay: Negative screening: IL-6-dependent proliferation of KT-3 cells (FACS); type: cell-based; conditions: 10 μM (No. 4 at 2 μM), human IL-6 5 ng/ml, 48 hours
Description: Human tumor cell line KT-3 cells known to have the property of proliferating by IL-6 stimulation were used for negative screening.
KT-3 cells were grown to confluency, and plated on 6-well plates at 1×10^5 cells/well in RPMI medium supplemented with 10% fetal calf serum (FCS) containing human IL-6 (5 ng/ml). After incubation for 3 hours, dimethyl sulfoxide (DMSO) and the 18 compounds (Nos. 1-18) each at a final concentration of 10 μM (except for No. 4 at 2 μM) were added, and incubation was continued for 48 hours.
The human tumor cell line KT-3 cells treated as above were suspended at about 1×10^6 cells/100 μl in RPMI medium supplemented with 10% FCS. Then, FSC/SSC dot plots of these cells were obtained by using FACS Calibur (Becton Dickinson).

STAT3 [1] = target: T1, STAT3 (Homo sapiens, UniProt P40763); assay: Luciferase assay of IL-6-induced transcriptional activity of STAT3 in 293T cells; type: cell-based; conditions: GFAP promoter firefly luciferase reporter, 20 μM for 1 hour, then human IL-6 10 ng/ml for 16 hours
T1 construct: Exponentially proliferating 293T cells cultured in Dulbecco's Modified Eagle's Medium; endogenous in cells; host or cells: 293T cells
T1 sequence (P40763 whole entry): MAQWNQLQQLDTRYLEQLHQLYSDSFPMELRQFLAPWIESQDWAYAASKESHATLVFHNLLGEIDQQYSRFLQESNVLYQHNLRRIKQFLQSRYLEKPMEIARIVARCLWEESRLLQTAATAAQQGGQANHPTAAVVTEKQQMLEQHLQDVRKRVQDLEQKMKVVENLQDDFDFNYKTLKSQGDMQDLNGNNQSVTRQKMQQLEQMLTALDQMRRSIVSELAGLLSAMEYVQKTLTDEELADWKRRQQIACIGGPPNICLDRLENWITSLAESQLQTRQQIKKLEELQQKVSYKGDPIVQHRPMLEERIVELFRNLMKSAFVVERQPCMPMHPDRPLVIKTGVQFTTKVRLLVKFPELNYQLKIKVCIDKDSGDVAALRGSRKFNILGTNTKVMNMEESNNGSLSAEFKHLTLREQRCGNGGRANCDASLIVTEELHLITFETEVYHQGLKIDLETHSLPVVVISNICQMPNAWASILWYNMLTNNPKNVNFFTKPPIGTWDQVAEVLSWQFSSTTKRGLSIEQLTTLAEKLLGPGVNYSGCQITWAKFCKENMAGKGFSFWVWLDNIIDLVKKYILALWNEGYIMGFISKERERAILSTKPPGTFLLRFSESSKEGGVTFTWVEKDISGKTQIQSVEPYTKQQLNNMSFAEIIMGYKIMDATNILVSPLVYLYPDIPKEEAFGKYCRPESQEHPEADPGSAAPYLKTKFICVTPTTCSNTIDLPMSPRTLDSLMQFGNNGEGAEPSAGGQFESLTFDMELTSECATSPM
Description: A reporter vector (2 μg) containing the firefly luciferase gene linked downstream of the glial fibrillary acidic protein (GFAP) gene promoter sequence and an internal control vector (0.1 μg) containing the EF1 gene promoter linked to the Renilla luciferase gene were transfected into 293T cells at 1×10^6 cells/well in 12-well plates using Lipofectamine Plus Reagent (Life Technologies, Bethesda, Md.) as instructed by the manufacturer. Twenty-three hours after the transfection, dimethyl sulfoxide (DMSO) and Compounds No. 1, 2, 4, 7, 10, 13, 14 and 16 each at a final concentration of 20 μM were added. One hour after the compounds were added, the cells treated with each compound were divided into two equal parts and stimulated or not with human IL-6 at a final concentration of 10 ng/ml. After 16 hours, cell extracts were prepared from the cells and measured for the specific activity of firefly luciferase to Renilla luciferase using Dual luciferase reporter system (Promega, Madison, Wis.).

STAT3 [2] = target: T2, STAT3 (Mus musculus, UniProt P42227); assay: Western blotting of IL-6-induced tyrosine phosphorylation of STAT3 in M1 cells; type: cell-based, murine
T2 construct: Exponentially proliferating M1 cells cultured in RPMI medium; endogenous in cells; host or cells: M1 cells
T2 sequence (P42227 whole entry): as the sequence (P40763 whole entry) above, with E760D counted along it
Description: Exponentially proliferating M1 cells cultured in RPMI medium supplemented with 10% fetal calf serum (FCS) in culture dish were treated with dimethyl sulfoxide (DMSO) and Compound No. 1, 2, 7, 10, 13, 14 or 16 at a final concentration of 10 μM for 30 minutes. Then, the cells were divided into two equal parts and incubated with or without murine IL-6 at a final concentration of 10 ng/ml for further 1 hour. Then, the M1 cells were suspended at a density of 1×10^7 cells/ml in lysis buffer (0.5% Triton X-100, 50 mM Tris-HCl, (pH7.5), 0.1 mM EDTA, 150 mM NaCl, 200 μM Na3VO4, 50 mM NaF, 1 mM dithiothreitol (DTT), 0.4 mM phenylmethylsulfonyl fluoride (PMSF), 3 μg/mL aprotinin, 2 μg/mL pepstatin A, 1 μg/mL leupeptin) and placed on ice for 30 minutes. The precipitate was removed by centrifuging the cell lysate at 12000 g for 15 minutes.
The samples thus obtained were separated by sodium dodecyl sulfate-polyacrylamide gel electrophoresis (SDS-PAGE). After the electrophoresis, the gel was placed on a PVDF transfer membrane prewetted in methanol for 10-20 seconds and then soaked in transfer buffer (25 mM tris, 192 mM glycine, 10% methanol, 0.1% SDS), and the assembly was sandwiched between two layers each consisting of 5 sheets of filter paper soaked in transfer buffer, whereby proteins were transferred to the transfer membrane using a semi-dry transfer method.
After transfer, the transfer membrane was shaken in blocking buffer (5% BSA, 1% BSA, 0.1% NaN3) for 30 minutes or more. Then, the membrane was washed with PBST (137 mM NaCl, 2.7 mM KCl, 1.5 mM KH2PO4, 8.1 mM Na2HPO4, 0.05% Tween20) three times for 5 minutes by shaking. The membrane was shaken for 60 minutes in an anti-STAT3 polyclonal antibody (C-20, Santa Cruz Biotechnology, Santa Cruz, Calif.) and an anti-phosphorylated STAT3 monoclonal antibody (B-7, Santa Cruz Biotechnology) as primary antibodies both diluted 1:1000 in PBST.
Then, the membrane was washed with PBST three times for 5 minutes by shaking. […]

ERK1/2 = assay: Western blotting of IL-6-induced phosphorylation of ERK1/2 in M1 cells; type: cell-based; conditions: murine IL-6 10 ng/ml, time course 0 to 24 hours
STAT3 [3] = target: T1, STAT3; assay: Western blotting of IL-6-induced tyrosine phosphorylation of STAT3 in 293T cells; type: cell-based; conditions: 20 μM for 1 hour, then IL-6 10 ng/ml for 16 hours
Description: Exponentially proliferating 293T cells cultured in Dulbecco's Modified Eagle's Medium (DMEM) supplemented with 10% fetal calf serum (FCS) in culture dish were incubated with dimethyl sulfoxide (DMSO) and Compounds No. 1, 2, 4, 7, 10, 13, 14 or 16 at a final concentration of 20 μM for 1 hour. Then, the cells were divided into two equal parts and incubated with or without murine IL-6 at a final concentration of 10 ng/ml for further 16 hours. Then, the 293T cells were suspended at a density of 1×10^7 cells/ml in lysis buffer, and placed on ice for 30 minutes. The precipitate was removed by centrifuging the cell lysate at 12000 g for 15 minutes.
The subsequent Western blot step was performed by the method described above.

## Br.O=[N+]([O-])c1ccc(-c2csc(Nc3cc(C(F)(F)F)cc(C(F)(F)F)c3)n2)cc1 [Compound No. 1]
KT-3 cells
  inhibition of IL-6-dependent proliferation of KT-3 cells: inhibition of cell proliferation

## Br.O=[N+]([O-])c1ccc(-c2csc(Nc3cc(C(F)(F)F)cc(C(F)(F)F)c3)n2)cc1 [Compound No. 2]
STAT3 [1]
  inhibitory effect on the transcriptional activity of STAT3: obvious inhibitory effect
STAT3 [2]; murine IL-6 10 ng/ml, at 3, 6, and 24 hours after the compound was added
  inhibition of tyrosine phosphorylation of STAT3 (time course): obvious inhibition
ERK1/2
  influence on the phosphorylation of ERK1/2 induced by IL-6: no influence
STAT3 [3]
  inhibition of tyrosine phosphorylation of STAT3: obvious inhibition

## Br.O=[N+]([O-])c1ccc(-c2csc(Nc3cc(C(F)(F)F)cc(C(F)(F)F)c3)n2)cc1 [compound 13]
STAT3 [2]; 10 μM for 30 minutes, then murine IL-6 10 ng/ml for 1 hour
  inhibition of tyrosine phosphorylation of STAT3: obvious inhibition
STAT3 [2]; 10 μM, IL-6 10 ng/ml, at 3 hours or later after the compounds were added
  inhibition of tyrosine phosphorylation of STAT3 (time course): inhibition
